Relative viability data for 5 cell lines are collected here from the supplement of paper PMC10307832.

Common to all, as to test: relative viability (nuclei count vs DMSO), 5 days (fraction); higher = more cells survive
Compound in the assay “Doramapimod + Tozasertib”: Cc1ccc(-n2nc(C(C)(C)C)cc2NC(=O)Nc2ccc(OCCN3CCOCC3)c3ccccc23)cc1 [Doramapimod] + Cc1cc(Nc2cc(N3CCN(C)CC3)nc(Sc3ccc(NC(=O)C4CC4)cc3)n2)n[nH]1 [Tozasertib] (partner 0.1 µM)
In outline: (§1)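 Relative viability is defined as nuclei in treated wells over nuclei in vehicle wells. Duplicate plates were run and medians reported. Lung cancer cell lines in 1536-well plates were dosed by pin tool one day after seeding, with one drug or with a fixed anchor-drug dose plus five library-drug doses (not always all listed) in √10 steps, and nuclei were counted after 5 days.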

Compound in the assay “Doramapimod + AZD7762”: Cc1ccc(-n2nc(C(C)(C)C)cc2NC(=O)Nc2ccc(OCCN3CCOCC3)c3ccccc23)cc1 [Doramapimod] + NC(=O)Nc1cc(-c2cccc(F)c2)sc1C(=O)N[C@H]1CCCNC1 [AZD7762] (partner 0.2 µM)
In outline: as §1

Compound in the assay “Doramapimod + Phenformin”: Cc1ccc(-n2nc(C(C)(C)C)cc2NC(=O)Nc2ccc(OCCN3CCOCC3)c3ccccc23)cc1 [Doramapimod] + N=C(N)NC(=N)NCCc1ccccc1 [Phenformin] (partner 250 µM)
Put shortly: as §1

Compound in the assay “IPA-3 + Luminespib”: C1=CC=C2C(=C1)C=CC(=C2SSC3=C(C=CC4=CC=CC=C43)O)O [IPA-3] + CCNC(=O)c1noc(-c2cc(C(C)C)c(O)cc2O)c1-c1ccc(CN2CCOCC2)cc1 [Luminespib] (partner 0.01 µM)
In outline:
as §1

As for NCI-H3122, the relative viability was 0.439 in the assay with Doramapimod + Tozasertib (first compound 0.02 µM); 0.408 with Doramapimod + Tozasertib (first compound 0.06325 µM); 0.448 in the assay with Doramapimod + Tozasertib (first compound 0.2 µM); 0.431 with Doramapimod + Tozasertib (first compound 0.6325 µM); 0.365 with Doramapimod + Tozasertib (first compound 2 µM); 1.11 in the assay with Doramapimod + AZD7762 (first compound 0.02 µM). The relative viability in the assay with Doramapimod + AZD7762 (first compound 0.06325 µM) is 1.09; with Doramapimod + AZD7762 (first compound 0.2 µM) it was 1.05; with Doramapimod + AZD7762 (first compound 0.6325 µM) it was 1; with Doramapimod + AZD7762 (first compound 2 µM), 1.12; with Doramapimod + Phenformin (first compound 0.02 µM), 0.381; in the assay with Doramapimod + Phenformin (first compound 0.06325 µM) it was 0.423. Also, the relative viability with Doramapimod + Phenformin (first compound 0.2 µM) amounted to 0.407; in the assay with Doramapimod + Phenformin (first compound 0.6325 µM) it was 0.38; with Doramapimod + Phenformin (first compound 2 µM) it was 0.36; in the assay with IPA-3 + Luminespib (first compound 0.2 µM), 0.0957; with IPA-3 + Luminespib (first compound 0.6325 µM) it was 0.0861; with IPA-3 + Luminespib (first compound 2 µM), 0.108. Moreover, the values for the relative viability with IPA-3 + Luminespib (first compound 6.325 µM) and in the assay with IPA-3 + Luminespib (first compound 20 µM) were 0.074 and 0.116, respectively.
Turning to PC-3 [JPC-3], the relative viability with Doramapimod + Tozasertib (first compound 0.02 µM) amounted to 0.914; with Doramapimod + Tozasertib (first compound 0.06325 µM), 0.961; with Doramapimod + Tozasertib (first compound 0.2 µM) it was 0.938; with Doramapimod + Tozasertib (first compound 0.6325 µM) it was 1.03; with Doramapimod + Tozasertib (first compound 2 µM), 0.92; with Doramapimod + AZD7762 (first compound 0.02 µM) it was 1.12. The relative viability with Doramapimod + AZD7762 (first compound 0.06325 µM) turned out to be 0.912; with Doramapimod + AZD7762 (first compound 0.2 µM), 0.882; with Doramapimod + AZD7762 (first compound 0.6325 µM), 0.899; with Doramapimod + AZD7762 (first compound 2 µM) it was 0.786; with Doramapimod + Phenformin (first compound 0.02 µM), 0.506; with Doramapimod + Phenformin (first compound 0.06325 µM) it was 0.475. The relative viability turned out to be 0.474 in the assay with Doramapimod + Phenformin (first compound 0.2 µM); 0.502 with Doramapimod + Phenformin (first compound 0.6325 µM); 0.453 with Doramapimod + Phenformin (first compound 2 µM); 0.742 with IPA-3 + Luminespib (first compound 0.2 µM); 0.666 in the assay with IPA-3 + Luminespib (first compound 0.6325 µM); 0.719 with IPA-3 + Luminespib (first compound 2 µM). The relative viability with IPA-3 + Luminespib (first compound 6.325 µM) stood at 0.641; with IPA-3 + Luminespib (first compound 20 µM), 0.801.
Regarding PC-14, the relative viability in the assay with Doramapimod + Tozasertib (first compound 0.02 µM) amounted to 0.582; with Doramapimod + Tozasertib (first compound 0.06325 µM), 0.602; with Doramapimod + Tozasertib (first compound 0.2 µM), 0.588; with Doramapimod + Tozasertib (first compound 0.6325 µM), 0.647; with Doramapimod + Tozasertib (first compound 2 µM), 0.525; with Doramapimod + AZD7762 (first compound 0.02 µM), 0.521. For the same cell line, the relative viability came out at 0.539 with Doramapimod + AZD7762 (first compound 0.06325 µM); 0.353 with Doramapimod + AZD7762 (first compound 0.2 µM); 0.378 with Doramapimod + AZD7762 (first compound 0.6325 µM); 0.325 with Doramapimod + AZD7762 (first compound 2 µM); 0.662 with Doramapimod + Phenformin (first compound 0.02 µM); 0.721 in the assay with Doramapimod + Phenformin (first compound 0.06325 µM). For the same cell line, the relative viability was found to be 0.809 with Doramapimod + Phenformin (first compound 0.2 µM); 0.762 in the assay with Doramapimod + Phenformin (first compound 0.6325 µM); 0.475 with Doramapimod + Phenformin (first compound 2 µM); 0.165 with IPA-3 + Luminespib (first compound 0.2 µM); 0.151 with IPA-3 + Luminespib (first compound 0.6325 µM); 0.189 with IPA-3 + Luminespib (first compound 2 µM). The relative viability came out at 0.161 with IPA-3 + Luminespib (first compound 6.325 µM) and 0.142 with IPA-3 + Luminespib (first compound 20 µM).
Take RERF-LC-KJ: the relative viability with Doramapimod + Tozasertib (first compound 0.02 µM) came to 0.506; with Doramapimod + Tozasertib (first compound 0.06325 µM) it was 0.535; with Doramapimod + Tozasertib (first compound 0.2 µM) it was 0.609; with Doramapimod + Tozasertib (first compound 0.6325 µM), 0.516; in the assay with Doramapimod + Tozasertib (first compound 2 µM) it was 0.498; with Doramapimod + AZD7762 (first compound 0.02 µM), 0.897. Moreover, the relative viability stood at 1.15 with Doramapimod + AZD7762 (first compound 0.06325 µM); 0.961 with Doramapimod + AZD7762 (first compound 0.2 µM); 0.703 in the assay with Doramapimod + AZD7762 (first compound 0.6325 µM); 0.889 with Doramapimod + AZD7762 (first compound 2 µM); 0.401 with Doramapimod + Phenformin (first compound 0.02 µM); 0.443 with Doramapimod + Phenformin (first compound 0.06325 µM). Moreover, the relative viability with Doramapimod + Phenformin (first compound 0.2 µM) came out at 0.395; with Doramapimod + Phenformin (first compound 0.6325 µM), 0.472; in the assay with Doramapimod + Phenformin (first compound 2 µM), 0.458; in the assay with IPA-3 + Luminespib (first compound 0.2 µM) it was 1.46; in the assay with IPA-3 + Luminespib (first compound 0.6325 µM), 1.27; in the assay with IPA-3 + Luminespib (first compound 2 µM), 1.29. Further, the relative viability was found to be 1.39 with IPA-3 + Luminespib (first compound 6.325 µM) and 1.14 with IPA-3 + Luminespib (first compound 20 µM).
For the cell line SW 900, the relative viability in the assay with Doramapimod + Tozasertib (first compound 0.02 µM) was determined as 0.538; with Doramapimod + Tozasertib (first compound 0.06325 µM), 0.584; with Doramapimod + Tozasertib (first compound 0.2 µM), 0.618; with Doramapimod + Tozasertib (first compound 0.6325 µM), 0.479; in the assay with Doramapimod + Tozasertib (first compound 2 µM) it was 0.481; in the assay with Doramapimod + AZD7762 (first compound 0.02 µM) it was 0.569. The relative viability was 0.72 with Doramapimod + AZD7762 (first compound 0.06325 µM); 0.551 with Doramapimod + AZD7762 (first compound 0.2 µM); 0.76 with Doramapimod + AZD7762 (first compound 0.6325 µM); 0.486 in the assay with Doramapimod + AZD7762 (first compound 2 µM); 0.612 with Doramapimod + Phenformin (first compound 0.02 µM); 0.665 with Doramapimod + Phenformin (first compound 0.06325 µM). Further, the relative viability with Doramapimod + Phenformin (first compound 0.2 µM) was 0.676; with Doramapimod + Phenformin (first compound 0.6325 µM), 0.76; in the assay with Doramapimod + Phenformin (first compound 2 µM) it was 0.635; with IPA-3 + Luminespib (first compound 0.2 µM), 0.211; with IPA-3 + Luminespib (first compound 0.6325 µM), 0.184; with IPA-3 + Luminespib (first compound 2 µM), 0.165. The figures for the relative viability in the assay with IPA-3 + Luminespib (first compound 6.325 µM) and in the assay with IPA-3 + Luminespib (first compound 20 µM) were 0.181 and 0.212, respectively.
